Laboratory results taken from US7888285B2, “2,4,6-phenyl substituted cyclic ketoenols” (Bayer CropScience AG, priority 2003, dated 2011).

How the values were obtained:
Assay type in all cases: in vivo
Avena fatua [1] = test: Pre-emergence test; details: greenhouse, 250 g a.i./ha, scored after three weeks
Description: (§1) [table] To prepare a suitable active compound preparation, 1 part by weight of active compound is mixed with the stated amount of solvent, the stated amount of emulsifier is added, and the concentrate is diluted with water to the desired concentration. Seeds of the test plant are sown in normal soil. After approximately 24 hours, the soil is sprayed with the active compound preparation in such a way that the amounts of active compound desired in each case are applied per unit area. The concentration of the spray mixture is chosen in such a way that the amounts of active compound desired in each case are applied in 1 000 1 of water/ha. After three weeks, the degree of damage of the plants is scored in % damage in comparison with the development of the untreated control.

Alopecurus [2] = test: Pre-emergence test; details: greenhouse, scored after three weeks
Description: as §1

Echinochloa [3] = test: Pre-emergence test; details: greenhouse, 250 g a.i./ha, scored after three weeks
Description: as §1

Setaria [4] = test: Pre-emergence test; details: greenhouse, scored after three weeks
Description: as §1

Sinapis [5] = test: Pre-emergence test; details: greenhouse, 250 g a.i./ha, scored after three weeks
Description: as §1

Abultilon [6] = test: Pre-emergence test; details: greenhouse, 250 g a.i./ha, scored after three weeks
Description: as §1

Avena fatua [7] = test: Post-emergence test; details: greenhouse, 250 g a.i./ha, scored after three weeks
Description: (§2) To prepare a suitable active compound preparation, 1 part by weight of active compound is mixed with the stated amount of solvent, the stated amount of emulsifier is added, and the concentrate is diluted with water to the desired concentration.
(§3) Test plants with a height of 5-15 cm are sprayed with the active compound preparation in such a way that the amounts of active compound desired in each case are applied per unit area. The concentration of the spray mixture is chosen in such a way that the amounts of active compound desired in each case are applied in 1 000 1 of water/ha.
(§4) After three weeks, the degree of damage of the plants is scored in % damage in comparison with the development of the untreated control.
(§5) The figures denote: • 0% =no effect (like untreated control) • 100% =total destruction

Alopecurus [8] = test: Post-emergence test; details: greenhouse, 250 g a.i./ha, scored after three weeks
Description: as §2, §3, §4, §5

Echinochloa [9] = test: Post-emergence test; details: greenhouse, 250 g a.i./ha, scored after three weeks
Description: as §2, §3, §4, §5

Setaria [10] = test: Post-emergence test; details: greenhouse, 250 g a.i./ha, scored after three weeks
Description: as §2, §3, §4, §5

Sinapis [11] = test: Post-emergence test; details: greenhouse, 250 g a.i./ha, scored after three weeks
Description: as §2, §3, §4, §5

sugar beet [12] = test: Post-emergence test; details: greenhouse, 250 g a.i./ha, scored after three weeks
Description: as §2, §3, §4, §5

Abultilon [13] = test: Post-emergence test; details: greenhouse, 250 g a.i./ha, scored after three weeks
Description: as §2, §3, §4, §5

Meloidogyne incognita = test: Meloidogyne test; details: 20 ppm, with reference to gall formation
Description: (§6) To prepare a suitable active compound preparation, 1 part by weight of active compound is mixed with the stated amounts of solvent and emulsifier and the concentrate is diluted with water to the desired concentration.
Containers are filled with sand, active compound solution, Meloidogyne incognita egg/larval suspension and lettuce seeds. The lettuce seeds germinate and the plantlets develop. The galls develop on the roots.
After the desired time, the nematicidal efficacy is determined I n % with reference to gall formation. 100% means that no galls were found; 0% means that the number of galls on the treated plants corresponds to that of the untreated control.

[14] = tested on: larvae of the mustard beetle (Phaedon cochleariae); test: Phaedon larvae test; details: 1000 ppm
Description: [table] To produce a suitable preparation of active compound, 1 part by weight of active compound is mixed with the stated amounts of solvent and emulsifier, and the concentrate is diluted with emulsifier-containing water to the desired concentration. Cabbage leaves (Brassica oleracea) are treated by being dipped into the preparation of active compound of the desired concentration and are infested with the larvae of the mustard beetle (Phaedon cochleariae) while the leaves are still moist.

[15] = tested on: greenhouse red spider mite (Tetranychus urticae); test: Tetranychus test (OP-resistant/immersion treatment)
Description: (§7) To produce a suitable preparation of active compound, 1 part by weight of active compound is mixed with the stated amounts of solvent and emulsifier, and the concentrate is diluted with emulsifier-containing water to the desired concentration.
Bean plants (Phaseolus vulgaris) which are severely infested with all stages of the greenhouse red spider mite (Tetranychus urticae) are dipped into a preparation of the active compound of the desired concentration.
After the desired time, the activity in % is determined. 100% means that all the spider mites have been killed; 0% means that none of the spider mites have been killed.

[16] = tested on: green peach aphid (Myzus persicae); test: Myzus test; details: 1000 ppm
Description: To prepare a suitable active compound preparation, 1 part by weight of active compound is mixed with the stated amounts of solvent and emulsifier and the concentrate is diluted with emulsifier-containing water to the desired concentration.
Cabbage leaves (Brassica oleracea), which are severely infested with the green peach aphid (Myzus persicae) are treated by immersing them into the active compound preparation of the desired concentration.
After the desired time, the destruction rate is determined in %. 100% means that all of the aphids have been destroyed; 0% means that none of the aphids have been destroyed.

[17] = tested on: black bean aphids (Aphis fabae); test: Aphis test, contact action; details: 1000 ppm
Description: as §6
Shoots of young field bean plants (Vicia faba) which are severely infested with black bean aphids (Aphis fabae) are treated by being dipped into the active compound preparation of the desired concentration.
After the desired period of time, the destruction is determined in %. 100% means that all of the aphids have been destroyed; 0% means that no aphids have been destroyed.

[18] = tested on: caterpillars of the diamond-back moth (Plutella xylostella); test: Plutella test; details: 1000 ppm
Description: as §7
Cabbage leaves (Brassica oleracea) are treated by being dipped into the preparation of active compound of the desired concentration and are infested with caterpillars of the diamond-back moth (Plutella xylostella) while the leaves are still moist.
(§8) After the desired time, the destruction in % is determined. 100% means that all the caterpillars have been killed; 0% means that none of the caterpillars have been killed.

Matricaria = test: Pre-emergence test; details: greenhouse, 125 g a.i./ha, scored after three weeks
Description: as §1

Cassia = test: Pre-emergence test; details: greenhouse, 125 g a.i./ha, scored after three weeks
Description: as §1

Viola = test: Pre-emergence test; details: greenhouse, 125 g a.i./ha, scored after three weeks
Description: as §1

Lolium = test: Pre-emergence test; details: greenhouse, 125 g a.i./ha, scored after three weeks
Description: as §1

sugar beet [19] = test: Pre-emergence test; details: greenhouse, scored after three weeks
Description: as §1

[20] = tested on: caterpillars of the armyworm (Spodoptera frugiperd); test: Spodoptera frugiperda test; details: 1000 ppm
Description: as §7
Cabbage leaves (Brassica oleracea) are treated by being dipped into the preparation of active compound of the desired concentration and are infested with caterpillars of the armyworm (Spodoptera frugiperd) while the leaves are still moist.
as §8

[21] = tested on: green rice leafhopper (Nephotettix cincticeps); test: Nephotettix test; details: 1000 ppm
Description: To produce a suitable preparation of active compound, 1 part
by weight of active compound is mixed with the stated amounts of solvent and emulsifier, and the concentrate is diluted with emulsifier-containing water to the desired concentration.
Rice seedlings (Oryza sativa) are treated by being dipped into the preparation of active compound of the desired concentration and are infested with the green rice leafhopper (Nephotettix cincticeps) while the leaves are still moist.
After the desired time, the destruction in % is determined. 100% means that all the leafhoppers have been killed; 0% means that none of the leafhoppers have been killed.

Amaranthus = test: Post-emergence test; details: greenhouse, 250 g a.i./ha, scored after three weeks
Description: as §2, §3, §4, §5

## CCc1cc(Cl)cc(OC)c1C1=C(O)C2(CCC(OC)CC2)NC1=O (single isomer, unassigned) [Example I-1-a-3]
Avena fatua [1]
  degree of damage, Avena fatua: 100%
Alopecurus [2]; 250 g a.i./ha
  degree of damage, Alopecurus: 80%
Echinochloa [3]
  degree of damage, Echinochloa: 100%
Setaria [4]; 250 g a.i./ha
  degree of damage, Setaria: 100%
Sinapis [5]
  degree of damage, Sinapis: 80%
Abultilon [6]
  degree of damage, Abultilon: 80%
Avena fatua [7]
  degree of damage, Avena fatua: 100%
Alopecurus [8]
  degree of damage, Alopecurus: 100%
Echinochloa [9]
  degree of damage, Echinochloa: 100%
Setaria [10]
  degree of damage, Setaria: 100%
Sinapis [11]
  degree of damage, Sinapis: 80%
Sugar beet [12]
  degree of damage, sugar beet: 0%
Abultilon [13]
  degree of damage, Abultilon: 70%
Meloidogyne incognita
  Destruction in % after 14 d: 98%
[14]
  Destruction in % after 7 d: 80%
[15]; 100 ppm
  Destruction in % after 7 d: 80%
[16]
  Destruction in % after 6 d: 90%

## CCc1cc(Cl)cc(OC)c1C1=C(O)C2(CCC(C)CC2)NC1=O (single isomer, unassigned) [Example I-1-a-4]
Avena fatua [1]
  degree of damage, Avena fatua: 100%
Alopecurus [2]; 250 g a.i./ha
  degree of damage, Alopecurus: 90%
Echinochloa [3]
  degree of damage, Echinochloa: 100%
Setaria [4]; 250 g a.i./ha
  degree of damage, Setaria: 100%
Sinapis [5]
  degree of damage, Sinapis: 90%
Avena fatua [7]
  degree of damage, Avena fatua: 100%
Alopecurus [8]
  degree of damage, Alopecurus: 100%
Echinochloa [9]
  degree of damage, Echinochloa: 100%
Setaria [10]
  degree of damage, Setaria: 100%
Sugar beet [12]
  degree of damage, sugar beet: 0%
Meloidogyne incognita
  Destruction in % after 14 d: 98%
[14]
  Destruction in % after 7 d: 100%

## COc1cc(Cl)cc(C)c1C1=C(O)C2(CCC(C)CC2)NC1=O (stereo not drawn) [Example I-1-a-1]
[17]
  Destruction in % after 6 d: 100%
[18]
  Destruction in % after 7 d: 100%
Matricaria
  degree of damage, Matricaria: 90%
Cassia
  degree of damage, Cassia: 100%
Alopecurus [2]; 125 g a.i./ha
  degree of damage, Alopecurus: 100%
Viola
  degree of damage, Viola: 90%
Lolium
  degree of damage, Lolium: 100%
Setaria [4]; 125 g a.i./ha
  degree of damage, Setaria: 100%
Sugar beet [19]; 125 g a.i./ha
  degree of damage, sugar beet: 0%
Avena fatua [7]
  degree of damage, Avena fatua: 100%
Alopecurus [8]
  degree of damage, Alopecurus: 100%
Setaria [10]
  degree of damage, Setaria: 100%
Sugar beet [12]
  degree of damage, sugar beet: 0%
[14]
  Destruction in % after 7 d: 100%
[20]
  Destruction in % after 7 d: 100%
[15]; 1000 ppm
  Destruction in % after 7 d: 100%
[16]
  Destruction in % after 6 d: 95%
[21]
  Destruction in % after 6 d: 100%

## COc1cc(Cl)cc(C)c1C1=C(O)C2(CCOCC2)NC1=O [Example I-1-a-2]
[18]
  Destruction in % after 7 d: 100%
Avena fatua [1]
  degree of damage, Avena fatua: 80%
Alopecurus [2]; 250 g a.i./ha
  degree of damage, Alopecurus: 100%
Setaria [4]; 250 g a.i./ha
  degree of damage, Setaria: 80%
Sugar beet [19]; 250 g a.i./ha
  degree of damage, sugar beet: 0%
Avena fatua [7]
  degree of damage, Avena fatua: 100%
Setaria [10]
  degree of damage, Setaria: 100%
Amaranthus
  degree of damage, Amaranthus: 90%
Sugar beet [12]
  degree of damage, sugar beet: 0%
[14]
  Destruction in % after 7 d: 100%
[15]; 1000 ppm
  Destruction in % after 7 d: 95%
[16]
  Destruction in % after 6 d: 100%
[21]
  Destruction in % after 6 d: 100%
